Measured values taken from patent US20240408057A1, “Composition for preventing or treating cachexia and muscle loss” (METAFINES.CO.LTD., priority 2023, published 2024).
Like-named read-outs stand apart in the source and are kept apart here.

Tests used:
MuRF1 = MuRF1 expression (Western blot) in CCM-treated C2C12 myotubes; format: cell-based, mouse; settings: 72 hours, compared to other experimental groups (components alone and in combination)
Description: A C2C12 cell line was dispensed into a 6-well plate at 4.0×10^5 cells/well, and then cultured in DMEM medium containing 10% fetal bovine serum (FBS) under 37° C. and 5% CO2 conditions for one day. When the cell density reached about 80%, the medium was replaced with a differentiation medium and the cells were cultured for additional 3 days. After confirming completion of differentiation of the cells, the cells were treated with a mixture, in which the differentiation medium and cancer-cell conditioned medium (CCM) were mixed at a 1:1 ratio, to form a control group, and simultaneously, a test group was set up by treating with the calcium salts of Preparation Examples 1 to 3 according to three predetermined concentrations.
A C2C12 cell line was dispensed into a 6-well plate at 4.0×10^5 cells/well, and then cultured in DMEM medium containing 10% fetal bovine serum (FBS) under 37° C. and 5% CO2 conditions for one day. When the cell density reached about 80%, the medium was replaced with a differentiation medium and the cells were cultured for additional 3 days.

[1] = target: T1, human recombinant cyclooxygenase COX-2 (Homo sapiens, UniProt P35354); experiment: Inhibition of COX2 (Ampliflu Red spectrofluorescence); format: biochemical; settings: 10 μM, compared with untreated group
T1 construct: host or cells: insect Sf21 cells
T1 sequence (P35354 18-604): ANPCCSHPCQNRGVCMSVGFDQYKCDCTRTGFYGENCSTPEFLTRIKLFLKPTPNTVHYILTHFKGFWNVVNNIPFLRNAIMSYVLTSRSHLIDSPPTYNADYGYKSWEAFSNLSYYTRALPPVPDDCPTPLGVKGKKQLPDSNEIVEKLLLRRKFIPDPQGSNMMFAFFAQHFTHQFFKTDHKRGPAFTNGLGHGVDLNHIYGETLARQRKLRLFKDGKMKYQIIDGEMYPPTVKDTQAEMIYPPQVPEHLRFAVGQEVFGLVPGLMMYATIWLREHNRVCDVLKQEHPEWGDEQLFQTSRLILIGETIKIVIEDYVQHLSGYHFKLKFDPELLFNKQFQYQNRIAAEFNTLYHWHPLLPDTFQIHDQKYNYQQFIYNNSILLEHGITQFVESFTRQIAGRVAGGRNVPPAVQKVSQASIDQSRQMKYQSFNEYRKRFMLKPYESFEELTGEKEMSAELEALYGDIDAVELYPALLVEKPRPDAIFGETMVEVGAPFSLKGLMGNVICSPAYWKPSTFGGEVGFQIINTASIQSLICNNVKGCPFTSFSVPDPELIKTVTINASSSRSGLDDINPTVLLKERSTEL
Description: At this time, the concentration of the calcium salt contained in the buffer solution was set to 10 μM. As an enzyme, 34 U/mL of human recombinant cyclooxygenase COX-2 expressed in insect Sf21 cells was further added to the buffer solution, and pre-reacted at 25° C. for 15 minutes. In addition, 3 μM arachidonic acid and 100 μM Ampliflu Red were added and reacted at 25° C. for 3 minutes. The amount of Resofurin produced in the reaction process was measured at 535 nm/590 nm by a spectrofluorescence method, and the inhibitory effect on COX2 was confirmed by comparing with the calcium salt untreated group.

[2] = Drug concentration in blood and pharmacokinetics factors after IV and PO administration; format: in vivo; settings: SD rats
Description: After the administration of each individual rat, blood was collected according to the elapsed time (0 to 48 hours), centrifuged, and the concentration of the administered drug in the blood and the pharmacokinetic factors (PK parameter) of the obtained plasma were analyzed through LC/MS/MS analysis, and the results are summarized in Table 1 below.

MyHC = MyHC expression in mouse muscle tissue, CT26 cachexia model; format: in vivo, Balb/c mice; settings: CT26 Balb/c cachexia model, 21 days; G4 PO 200 mpk, G5 IV 100 mpk, G6 IV 200 mpk; vs vehicle control G2
Description: The mice were sacrificed, and the skeletal muscle in the quadriceps was extracted during autopsy, and tissue was homogenized, and proteins were extracted through RIPA lysis buffer, followed by Western blot analysis.

[3] = Inhibition of weight loss in cancer cachexia animal model; format: in vivo, Balb/c mice; settings: CT26 Balb/c cachexia model, G6 IV 200 mpk, p<0.05
Text: In FIG. 49, each group represents the following.

[4] = test system: skeletal muscle (gastrocnemius, quadriceps, and soleus); settings: CT26 Balb/c cachexia model, 21 days
Description: A CT26 mouse colorectal cancer cell line was subcutaneously transplanted into Balb/c mice to construct a syngeneic model, and the calcium salt (Asc-Ca-DCA) of Preparation
Example 1 was administered to the mice for a total of 21 days. The mice were sacrificed, and three types of skeletal muscle (gastrocnemius, quadriceps, and soleus) were extracted at autopsy, and histopathological analysis was performed. Cross-sectional images of muscle tissue were obtained, and the muscle fiber cross-sectional area (CSA) was measured, and the results are summarized in FIGS. 50 to 52.
In FIGS. 50 to 52, each group represents the following. […] Scale bars inserted in A to F of FIGS. 50 to 52 represent a horizontal length of 100 μm.

Rotarod-treadmill test = format: in vivo, Balb/c mice; settings: CT26 Balb/c cachexia model; G6 IV 200 mpk
Description: After the animal was carefully placed on a Rotarod-treadmill (JD-A-07RA5, B.S Technolab Inc., Korea), and the measurement was made for 300 seconds while increasing the rotation speed from 4 rpm to 40 rpm at regular intervals and, and the results are summarized in FIG. 53A.

[5] = PO 2,000 mg/kg (1,000 mg/kg, BID), 1 day
[6] = PO 2,000 mg/kg (1,000 mg/kg, BID), 6 days

O=C([O-])C(Cl)Cl.O=C1OC(C(O)CO)C([O-])=C1O.[Ca+2] (stereo not shown) [Preparation Example 1, calcium salts of ascorbic acid and dichloroacetic acid]
expression of MuRF1 (MuRF1): excellent effect of inhibiting the increase of expression | inhibitory effect on COX2 [1]: 74% | AUClast ([2]; IV 200 mg/kg, 1 day): 19770 ng·h/mL | Cmax ([2]; IV 200 mg/kg, 1 day): 30240 ng/mL | Tmax ([2]; IV 200 mg/kg, 1 day): 0.25 h | t1/2 ([2]; IV 200 mg/kg, 1 day): 0.27 h | AUClast ([2]; IV 200 mg/kg, 6 days): 7980 ng·h/mL | Cmax ([2]; IV 200 mg/kg, 6 days): 2700 ng/mL | Tmax ([2]; IV 200 mg/kg, 6 days): 0.00 h | t1/2 ([2]; IV 200 mg/kg, 6 days): 2.72 h | AUClast ([2]; PO 200 mg/kg, 1 day): 38780 ng·h/mL | Cmax ([2]; PO 200 mg/kg, 1 day): 23910 ng/mL | Tmax ([2]; PO 200 mg/kg, 1 day): 0.50 h | t1/2 ([2]; PO 200 mg/kg, 1 day): 0.59 h | AUClast ([2]; PO 200 mg/kg, 6 days): 34620 ng·h/mL | Cmax ([2]; PO 200 mg/kg, 6 days): 6260 ng/mL | Tmax ([2]; PO 200 mg/kg, 6 days): 0.00 h | t1/2 ([2]; PO 200 mg/kg, 6 days): 2.72 h | AUClast ([2]; PO 500 mg/kg, 1 day): 353650 ng·h/mL | Cmax ([2]; PO 500 mg/kg, 1 day): 66440 ng/mL | Tmax ([2]; PO 500 mg/kg, 1 day): 1.50 h | t1/2 ([2]; PO 500 mg/kg, 1 day): 4.14 h | AUClast ([2]; PO 500 mg/kg, 6 days): 147850 ng·h/mL | Cmax ([2]; PO 500 mg/kg, 6 days): 21280 ng/mL | Tmax ([2]; PO 500 mg/kg, 6 days): 0.00 h | t1/2 ([2]; PO 500 mg/kg, 6 days): 5.58 h | AUClast [2, 5]: 889770 ng·h/mL | Cmax [2, 5]: 130920 ng/mL | Tmax [2, 5]: 1.75 h | t1/2 [2, 5]: 5.64 h | AUClast [2, 6]: 575250 ng·h/mL | Cmax [2, 6]: 77200 ng/mL | Tmax [2, 6]: 0.00 h | t1/2 [2, 6]: 3.11 h | expression level of MyHC in quadriceps (MyHC): increase in the expression levels | weight increase compared to G2 ([3]; 17th day): about 6% | weight increase compared to G2 ([3]; 20th day): ~13% | cross-sectional area of muscle tissue (gastrocnemius, quadriceps, soleus) ([4]; G4 PO 200 mpk, G5 IV 100 mpk, G6 IV 200 mpk, vs vehicle control G2): increased the cross-sectional area | cross-sectional area of muscle tissue (gastrocnemius, quadriceps, soleus) ([4]; G4 to G6, compared to G3 megestrol 125 mpk): level similar | Rotarod-treadmill test improvement compared to G2 (Rotarod-treadmill test): about 24%
